From patent US12344623B2, “Thiazolopyridine derivatives as adenosine receptor antagonists” (Merck Patent GmbH, priority 2019, dated 2025)

Tests used:
Format in all cases: cell-based
mouse Pan T cells [1] = test: mTcell assay, cAMP, agonist NECA
Source text: (§1) Adenosine (Ado) in tumor microenvironment can inhibit T cell activity by signaling through A2A receptors and suppress cytokine secretion by T cells. […] Potential A2A antagonists or A2A/A2B dual antagonists can rescue T cells from this inhibition. Herein, we describe the in vitro system we established using Pan T cells from mouse spleens to screen potential A2A antagonists or A2A/A2B dual antagonists for their activity. The method described involves the use of CD3/CD28 pre-coated beads to stimulate Pan T cells purified from mouse splenocytes, combined with the addition of A2A agonist along with potential A2A or A2A/A2B dual antagonists to evaluate potentiation of T cell cytokine production.
Pan T-cells are isolated from black 6 mice by manual dissociation and purified using a Miltenyi Pan T-cell isolation kit. The isolated T-cells are activated in 96 well plates for 48 hours using anti-CD3/CD28 beads in T-cell proliferation media.
After 48 hours, the T-cells are pooled, counted and suspended in serum free media containing 0.1% BSA. The cells are plated at 50,000 cells per well in 10 ul of media and incubated for 2 hours at 37° C. Test compounds are dispensed into the wells at a 10-point dose response, starting at a concentration of 10 uM. […] The plates are incubated for 30 minutes at 37° C. and assayed for cAMP levels using the Cisbio cAMP Dynamic2 reagent kit by adding 10 ul of the kit reagents to each well. The plates are incubated for 1 hour at room temperature and the HTRF signal is read on an Envision plate reader. The raw data is analyzed in Genedata Screener and the resulting data is loaded into the database.

human A2A receptor [2] = target: T1, human A2A receptor (Homo sapiens, UniProt P29274); test: Human T cells, endogenous A2A receptor, cAMP, agonist NECA; settings: read-out: hTcell data, cAMP, IC50
Outline: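 Pan T cells isolated from fresh human blood PBMC, endogenously expressing Gs-coupled A2A, treated with compounds. Cellular cAMP measured by HTRF after 1 h; data normalized to inhibitor control and DMSO neutral control, then curve-fitted.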

human A2B receptor = target: T2, human A2B receptor (Homo sapiens, UniProt P29275); test: Functional A2B receptor activity, recombinant HEK293 cells, cAMP (HTRF), agonist NECA; settings: read-out: Functional A2B receptor activity, HEK293, cAMP, IC50
T2 construct: expressed in transfected cells; host or cells: HEK293
T2 sequence (P29275 1-332): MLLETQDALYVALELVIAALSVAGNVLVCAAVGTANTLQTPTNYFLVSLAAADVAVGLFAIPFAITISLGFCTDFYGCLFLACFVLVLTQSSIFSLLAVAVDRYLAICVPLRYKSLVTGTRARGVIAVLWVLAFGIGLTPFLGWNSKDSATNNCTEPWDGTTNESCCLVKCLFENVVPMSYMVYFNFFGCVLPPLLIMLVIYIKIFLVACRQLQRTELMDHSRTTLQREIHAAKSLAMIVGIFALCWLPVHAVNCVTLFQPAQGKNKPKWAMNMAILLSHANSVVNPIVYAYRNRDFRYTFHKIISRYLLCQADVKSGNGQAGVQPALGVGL
Outline: (§2)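 Cells were seeded, then treated with forskolin, test compound and agonist. After a 30 min incubation, HTRF detection reagents were added and intracellular cAMP was read. Values were scaled between an inhibitor control and DMSO before fitting.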

human T cells = test: hTcell data, IL-2 (human T cells, IL-2 readout; method not given); settings: compounds of the present invention
human A3 receptor = target: T3, human A3 receptor (Homo sapiens, UniProt P0DMS8); test: Functional A3 receptor activity, recombinant CHO cells, cAMP (HTRF), forskolin, agonist IB-MECA; settings: recombinant CHO cells, forskolin, agonist IB-MECA; read-out: Functional A3 receptor activity, CHO, cAMP, IC50
T3 construct: expressed in transfected cells; host or cells: CHO
T3 sequence (P0DMS8 1-318): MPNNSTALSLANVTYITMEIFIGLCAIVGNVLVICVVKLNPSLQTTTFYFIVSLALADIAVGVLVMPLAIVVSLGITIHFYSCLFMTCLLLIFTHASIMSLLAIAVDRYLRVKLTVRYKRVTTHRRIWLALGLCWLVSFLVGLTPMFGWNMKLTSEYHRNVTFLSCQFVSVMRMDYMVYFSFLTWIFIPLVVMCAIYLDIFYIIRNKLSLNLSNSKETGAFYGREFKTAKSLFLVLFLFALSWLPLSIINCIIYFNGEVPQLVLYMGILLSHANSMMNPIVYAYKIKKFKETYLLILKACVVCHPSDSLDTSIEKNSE
Outline: (§3)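 Recombinant CHO lines carrying either receptor receive forskolin, compound and the matching agonist, CPA or IB-MECA. After 30 min, HTRF reagents are added and cAMP is quantified. Values are normalized to inhibitor and neutral DMSO controls, then fitted.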

human A2A receptor [3] = target: T1, human A2A receptor; test: Functional A2A receptor activity, recombinant HEK293 cells, cAMP (HTRF), agonist NECA; design: expressed in transfected cells; host or cells: HEK293; settings: read-out: Functional A2A receptor activity, HEK293, cAMP, IC50
Outline: as §2

human A1 receptor = target: T4, human A1 receptor (Homo sapiens, UniProt P30542); test: Functional A1 receptor activity, recombinant CHO cells, cAMP (HTRF), forskolin, agonist CPA; settings: recombinant CHO cells, forskolin, agonist CPA; read-out: Functional A1 receptor activity, CHO, cAMP, IC50
T4 construct: expressed in transfected cells; host or cells: CHO
T4 sequence (P30542 1-326): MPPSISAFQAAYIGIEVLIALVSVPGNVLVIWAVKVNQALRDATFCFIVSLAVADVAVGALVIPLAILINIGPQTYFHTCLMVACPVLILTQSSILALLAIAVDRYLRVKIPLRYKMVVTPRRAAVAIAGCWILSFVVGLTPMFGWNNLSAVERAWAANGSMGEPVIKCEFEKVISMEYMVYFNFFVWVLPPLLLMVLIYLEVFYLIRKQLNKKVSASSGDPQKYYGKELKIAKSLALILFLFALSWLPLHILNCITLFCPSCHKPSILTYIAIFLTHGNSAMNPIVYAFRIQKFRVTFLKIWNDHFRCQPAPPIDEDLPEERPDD
Outline: as §3

mouse Pan T cells [4] = test: mTcell assay, IL-2, rescue of cytokine secretion, agonist NECA; settings: 24 h
Source text: as §1
Briefly, mouse Pan T cells are purified from spleens of BALB/c mice using Pan T cell isolation kit Mouse II (MACS Miltenyi biotech Cat # Order no. 130-095-130) according to manufacturer's protocol. The purified T cells are seeded in Nunc™ 96-Well Polystyrene Round Bottom Microwell Plates in RPMI medium with 10% heat inactivated fetal bovine serum. The cells are rested at 37° C. for 1 h before activating with CD3/CD28 pre-coated beads (Dynabeads™ Mouse T-Activator CD3/CD28; Cat #11456D). After 30 min the cells are treated with varying doses of test antagonist(s). […] After 24 h incubation IL-2 levels in the supernatants are measured by ELISAs according to manufacturer's protocol (R&D systems Cat #DY402 (IL-2)). Once the concentrations are calculated, the difference of cytokine concentration of DMSO control and agonist alone control is calculated and the percentage of rescue by each concentration of antagonist is calculated by using Microsoft Excel. These percentages of cytokine rescue in a dose dependent manner of antagonist is plotted in GraphPad Prism software and IC50 is calculated.

T1 sequence (P29274 whole entry): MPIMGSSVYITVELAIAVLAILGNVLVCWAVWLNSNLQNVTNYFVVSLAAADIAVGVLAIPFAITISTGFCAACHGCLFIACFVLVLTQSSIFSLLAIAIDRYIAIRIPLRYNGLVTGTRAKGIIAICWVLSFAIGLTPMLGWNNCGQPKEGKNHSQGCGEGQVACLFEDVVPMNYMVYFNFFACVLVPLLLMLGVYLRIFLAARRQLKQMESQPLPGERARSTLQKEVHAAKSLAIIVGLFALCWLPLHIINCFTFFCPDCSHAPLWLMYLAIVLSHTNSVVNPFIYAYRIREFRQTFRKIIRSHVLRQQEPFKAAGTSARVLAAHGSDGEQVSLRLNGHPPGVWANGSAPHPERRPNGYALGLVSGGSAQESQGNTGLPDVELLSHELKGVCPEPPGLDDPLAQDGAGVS

Row | Structure (SMILES) | IC50 (mouse Pan T cells [1]; mouse Pan T cells, agonist NECA 1 uM) [nM] | IC50 (human A2A receptor [2]) [nM] | IC50 (human A2B receptor) [nM] | IC50 (human T cells) [nM] | IC50 (human A3 receptor) [nM] | IC50 (human A2A receptor [3]) [nM] | IC50 (human A1 receptor) [nM] | IC50 (mouse Pan T cells [1]; Mus musculus, T-cell) [nM] | IC50 (human T cells; T-cell) [nM] | IC50 (mouse Pan T cells [4]; Mus musculus, T-cell) [nM] | IC50 (mouse Pan T cells [4]; mouse Pan T cells, CD3/CD28 activated, NECA 1 μM, IL-2 rescue) [nM]
1 | COc1nc(F)c(C2CCOCC2)c2sc(NC(=O)N3CC[C@]4(CCOC4)C3)nc12 [Compound 38, (5S)-N-[6-fluoro-4-methoxy-7-(oxan-4-yl)-[1,3]thiazolo[4,5-c]pyridin-2-yl]-2-oxa-7-azaspiro[4.4]nonane-7-carboxamide] | – | < 10 | < 10 | – | > 1000 | < 10 | > 1000 | < 10 | – | < 100 | –
2 | COc1ncc(-c2cccs2)c2sc(NC(=O)N3CCC4(CCOCC4)C3)nc12 [Compound 47, 8-Oxa-2-aza-spiro[4.5]decane-2-carboxylic acid (4-methoxy-7-thiophen-2-yl-thiazolo[4,5-c]pyridin-2-yl)-amide] | – | < 10 | < 10 | – | > 1000 | < 10 | > 1000 | < 100 | – | < 100 | –
3 | COc1nc(F)c(N2CCOCC2)c2sc(NC(=O)N3CC[C@]4(CCOC4)C3)nc12 [Compound 19, (5S)-N-[6-fluoro-4-methoxy-7-(morpholin-4-yl)-[1,3]thiazolo[4,5-c]pyridin-2-yl]-2-oxa-7-azaspiro[4.4]nonane-7-carboxamide] | – | < 10 | < 100 | – | > 1000 | < 10 | > 1000 | < 100 | < 100 | < 100 | –
4 | COc1ncc(C2=CCOCC2)c2sc(NC(=O)c3ccc(C(=O)N(C)C)cc3)nc12 [Compound 61, N4-[7-(3,6-dihydro-2H-pyran-4-yl)-4-methoxy-[1,3]thiazolo[4,5-c]pyridin-2-yl]-N1,N1-dimethylbenzene-1,4-dicarboxamide] | – | < 10 | < 10 | – | > 1000 | < 10 | < 1000 | – | – | < 100 | –
5 | COc1cccc(-c2cnc(OC)c3nc(NC(=O)N4CCC5(CCOCC5)C4)sc23)c1 [Compound 54, 8-Oxa-2-aza-spiro[4.5]decane-2-carboxylic acid [4-methoxy-7-(3-methoxy-phenyl)-thiazolo[4,5-c]pyridin-2-yl]-amide] | – | < 10 | < 10 | – | > 1000 | < 10 | > 1000 | < 10 | – | < 100 | –
6 | COc1ncc(C2=CCOCC2)c2sc(NC(=O)N3CCC4(CCCOC4)C3)nc12 (stereo not drawn) [Compound 15, 7-Oxa-2-aza-spiro[4.5]decane-2-carboxylic acid [7-(3,6-dihydro-2H-pyran-4-yl)-4-methoxy-thiazolo[4,5-c]pyridin-2-yl]-amide] | – | – | < 10 | < 10 | > 1000 | < 10 | > 1000 | – | – | – | < 100

Next, values leading:

Row | IC50 (mouse Pan T cells [1]; mouse Pan T cells, agonist NECA 1 uM) [nM] | IC50 (human A2A receptor [2]) [nM] | IC50 (human A2B receptor) [nM] | IC50 (human T cells) [nM] | IC50 (human A3 receptor) [nM] | IC50 (human A2A receptor [3]) [nM] | IC50 (human A1 receptor) [nM] | IC50 (mouse Pan T cells [1]; Mus musculus, T-cell) [nM] | IC50 (human T cells; T-cell) [nM] | IC50 (mouse Pan T cells [4]; Mus musculus, T-cell) [nM] | IC50 (mouse Pan T cells [4]; mouse Pan T cells, CD3/CD28 activated, NECA 1 μM, IL-2 rescue) [nM] | Structure (SMILES)
7 | < 100 | < 10 | < 100 | < 10 | > 1000 | < 10 | < 1000 | – | – | – | – | COc1ncc(C2=CCOCC2)c2sc(NC(=O)N3CC[C@]4(CCCOC4)C3)nc12 [Compound 24, (R)-7-Oxa-2-aza-spiro[4.5]decane-2-carboxylic acid [7-(3,6-dihydro-2H-pyran-4-yl)-4-methoxy-thiazolo[4,5-c]pyridin-2-yl]-amide]
8 | – | < 100 | < 10 | – | < 1000 | < 10 | > 1000 | < 100 | < 10 | – | – | COc1nc(F)c(N2CCOCC2)c2sc(NC(=O)c3ccc(-c4nnn[nH]4)cc3)nc12 [Compound 6, N-(6-Fluoro-4-methoxy-7-morpholin-4-yl-thiazolo[4,5-c]pyridin-2-yl)-4-(1H-tetrazol-5-yl)-benzamide]
9 | – | < 10 | < 10 | – | > 1000 | < 10 | < 1000 | < 10 | < 10 | < 10 | – | COc1nc(F)c(-c2ccccc2)c2sc(NC(=O)N3CC[C@]4(CCCOC4)C3)nc12 [Compound 12, (R)-7-Oxa-2-aza-spiro[4.5]decane-2-carboxylic acid (6-fluoro-4-methoxy-7-phenyl-thiazolo[4,5-c]pyridin-2-yl)-amide]
10 | – | < 10 | < 10 | – | > 1000 | < 10 | > 1000 | < 10 | < 100 | < 10 | – | COc1ncc(-c2cccc(N)c2)c2sc(NC(=O)N3CCC4(CCOCC4)C3)nc12 [Compound 39, 8-Oxa-2-aza-spiro[4.5]decane-2-carboxylic acid [7-(3-amino-phenyl)-4-methoxy-thiazolo[4,5-c]pyridin-2-yl]-amide]
11 | – | < 10 | < 10 | – | > 1000 | < 10 | > 1000 | – | < 10 | < 100 | – | COc1nc(F)c(N2CCOCC2)c2sc(NC(=O)N3CC[C@@]4(CCCOC4)C3)nc12 [Compound 11, (5S)-N-[6-fluoro-4-methoxy-7-(morpholin-4-yl)-[1,3]thiazolo[4,5-c]pyridin-2-yl]-7-oxa-2-azaspiro[4.5]decane-2-carboxamide]
